Measurements from ChEMBL document CHEMBL1201862, “PubChem BioAssay data set” (2004).
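Results reflect a 48-hour exposure of cells in 96-well plates to compound at five concentrations. Abbreviation: GI50, concentration required for 50% inhibition of growth.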 Active and inactive are the calls of the source. No stated cut-off is given here; in the data, active = GI50 up to about 1.1 µM and inactive = higher.

Tests used:
Assay in all cases: DTP human tumour cell line panel, 48 h
[1] = system: DMS-273
[2] = system: HCT-116
[3] = system: M19-MEL
[4] = system: SK-MEL-5
[5] = system: SR
[6] = system: ACHN
[7] = system: A549
[8] = system: NCI-H226
[9] = system: HCC 2998
[10] = system: Malme-3M
[11] = system: LXFL 529
[12] = system: KM12
[13] = system: UACC-257
[14] = system: TK-10
[15] = system: NCI-H23
[16] = system: K562
[17] = system: SF-539
[18] = system: HCT-15
[19] = system: COLO 205
[20] = system: OVCAR-5
[21] = system: RXF 393
[22] = system: HOP-18
[23] = system: DMS-114
[24] = system: XF498
[25] = system: SF-268
[26] = system: SF-295
[27] = system: HOP-62
[28] = system: RXF 631
[29] = system: HOP-92
[30] = system: CAKI-1
[31] = system: HT-29
[32] = system: MOLT-4
[33] = system: DLD-1
[34] = system: M14
[35] = system: EKVX
[36] = system: CCRF-CEM
[37] = system: NCI-H460
[38] = system: KM-20L2
[39] = system: SN12C
[40] = system: IGROV-1
[41] = system: SNB-19
[42] = system: A498
[43] = system: UO-31
[44] = system: SNB-75
[45] = system: LOX IMVI
[46] = system: OVCAR-3
[47] = system: 786-0
[48] = system: UACC-62
[49] = system: SK-MEL-28
[50] = system: SK-OV-3
[51] = system: HL-60
[52] = system: OVCAR-8
[53] = system: NCI-H522
[54] = system: SK-MEL-2
[55] = system: U-251
[56] = system: RPMI-8226
[57] = system: OVCAR-4
[58] = system: SNB-78
[59] = system: SW-620

Measured: GI50

COC(=O)/C=C(/C(=O)OC)C1(C)c2cc(C(=O)OC)c(C(=O)OC)c(N)c2C(=N)N1c1ccccc1 (configuration not stated)
31.8 µM: [18]
inactive: [1] 52.8 µM | [2] 15.8 µM | [3] 13.9 µM | [4] > 10 µM | [5] 22.8 µM | [6] 18 µM | [7] 42 µM | [8] 36.2 µM | [9] 16.7 µM | [10] 17.4 µM | [11] 19 µM | [12] 17.2 µM | [13] > 10 µM | [14] 41.4 µM | [15] 22.1 µM | [16] 18.7 µM | [17] 22.2 µM | [19] 15.9 µM | [20] 41.4 µM | [21] 17.1 µM | [22] 20.6 µM | [23] 15.1 µM | [24] 14.7 µM | [25] 19.3 µM | [26] 17.9 µM | [27] 86.7 µM | [28] 29.1 µM | [29] 10.4 µM | [30] 21.4 µM | [31] 16.7 µM | [32] 17.8 µM | [33] 13.8 µM | [34] 17.5 µM | [35] 27.1 µM | [36] 15.5 µM | [37] 39.5 µM | [38] 17 µM | [39] 19.6 µM | [40] 27.5 µM | [41] 49 µM | [42] 31.1 µM | [43] 22.6 µM | [44] 29.4 µM | [45] 18.2 µM | [46] 17.9 µM | [47] 28.6 µM | [48] 24.6 µM | [49] 18.1 µM | [50] 34 µM | [51] 14.1 µM | [52] 17.4 µM | [53] 14.2 µM | [54] 36.7 µM | [55] 20.1 µM | [56] 21.5 µM

C=CCC1(CN(C)C)CC/C(=C\c2ccc(OC)cc2)C1=O (configuration not stated)
52 µM: [18]
inactive: [57] 88.7 µM | [1] > 100 µM | [2] 61.5 µM | [3] 59.8 µM | [4] 41.5 µM | [6] > 100 µM | [7] > 100 µM | [8] > 100 µM | [9] 38.7 µM | [10] 79.3 µM | [11] 47.2 µM | [12] 74.3 µM | [13] 38 µM | [14] > 100 µM | [15] 81.7 µM | [16] 32.9 µM | [17] > 100 µM | [19] 46.7 µM | [58] > 100 µM | [20] > 100 µM | [21] > 100 µM | [22] > 100 µM | [23] 37.7 µM | [25] > 100 µM | [26] > 100 µM | [27] > 100 µM | [28] 25 µM | [29] 83.6 µM | [31] 36.6 µM | [32] 28.7 µM | [33] 34.2 µM | [34] 74.5 µM | [35] 20.3 µM | [36] 34.8 µM | [37] > 100 µM | [38] 46.2 µM | [39] > 100 µM | [40] > 100 µM | [41] > 100 µM | [42] 73.5 µM | [43] 89.9 µM | [44] > 100 µM | [45] > 100 µM | [46] > 100 µM | [47] 65.8 µM | [48] > 100 µM | [49] > 100 µM | [51] 15 µM | [59] 30.9 µM | [52] 69.8 µM | [53] 25.8 µM | [54] > 100 µM | [55] 89.5 µM | [56] 23.9 µM

COC(=O)CC1CCN(C#N)CC1CC[N+](=O)[O-] (configuration not stated)
> 100 µM: [18]
inactive: [57] > 100 µM | [1] > 100 µM | [2] > 100 µM | [3] > 100 µM | [4] > 100 µM | [5] > 100 µM | [6] > 100 µM | [7] > 100 µM | [8] > 100 µM | [9] > 100 µM | [10] > 100 µM | [11] > 100 µM | [12] > 100 µM | [13] > 100 µM | [14] > 100 µM | [16] > 100 µM | [17] > 100 µM | [19] > 100 µM | [58] > 100 µM | [21] > 100 µM | [22] > 100 µM | [23] > 100 µM | [25] > 100 µM | [27] > 100 µM | [28] > 100 µM | [30] > 100 µM | [32] > 100 µM | [33] > 100 µM | [34] > 100 µM | [36] > 100 µM | [37] > 100 µM | [38] > 100 µM | [39] > 100 µM | [40] > 100 µM | [41] > 100 µM | [42] > 100 µM | [43] > 100 µM | [44] > 100 µM | [46] > 100 µM | [47] > 100 µM | [48] > 100 µM | [49] > 100 µM | [50] > 100 µM | [51] > 100 µM | [59] > 100 µM | [52] > 100 µM | [53] > 100 µM | [54] > 100 µM | [55] > 100 µM | [56] > 100 µM
